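These data come from cells grown in 96-well plates and exposed to compound for 48 hours at five concentrations. Abbreviation: GI50, concentration required for 50% inhibition of growth.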 Active and inactive are the calls of the source. Rule as the data show it: active = GI50 up to about 1.1 µM and inactive = higher.
What was measured:
Assay in all cases: NCI anticancer screen, dose series, 48 h
DMS-273 = tested on: DMS-273
DLD-1 = tested on: DLD-1
KM-20L2 = tested on: KM-20L2
DMS-114 = tested on: DMS-114
XF498 = tested on: XF498
M19-MEL = tested on: M19-MEL
LXFL 529 = tested on: LXFL 529
HOP-18 = tested on: HOP-18
RXF 631 = tested on: RXF 631

Measured: GI50

O=C(NNC(=O)c1cc(/C=C/c2cccc([N+](=O)[O-])c2)nc(S)n1)Nc1ccc(Cl)cc1
inactive: DMS-273 > 100 µM | DLD-1 20.2 µM | KM-20L2 45.9 µM | DMS-114 30.8 µM | XF498 28.6 µM | M19-MEL 69 µM | LXFL 529 42.3 µM | HOP-18 > 100 µM

Cc1cccc(C)c1N1C(=O)C(=O)C(c2nc3ccccc3s2)/C(=N/NC(=O)NN)C1=O (configuration not stated)
inactive: DMS-273 > 100 µM | DLD-1 > 100 µM | KM-20L2 > 100 µM | DMS-114 > 100 µM | XF498 > 100 µM | M19-MEL > 100 µM | LXFL 529 > 100 µM | HOP-18 > 100 µM

COc1ccc2c(c1)[n+]([O-])c(-c1ccccc1)c(N)[n+]2[O-]
inactive: DMS-273 34.4 µM | DLD-1 45.6 µM | KM-20L2 46 µM | DMS-114 25.4 µM | XF498 35 µM | M19-MEL 39.2 µM | LXFL 529 30.5 µM | HOP-18 33.6 µM

CN(C(=N)c1ccccc1)c1ccccc1
inactive: DMS-273 > 100 µM | DLD-1 > 100 µM | KM-20L2 > 100 µM | M19-MEL > 100 µM | LXFL 529 > 100 µM | HOP-18 > 100 µM

CCOC(=O)C1(c2ccccc2)CCC(=O)CC1
inactive: DMS-273 > 100 µM | DLD-1 > 100 µM | KM-20L2 > 100 µM | DMS-114 > 100 µM | RXF 631 > 100 µM | M19-MEL > 100 µM | LXFL 529 > 100 µM | HOP-18 > 100 µM

COc1ccc2c(CN3CCCCC3CO)cc3cc(OC)c(OC)cc3c2c1 (configuration not stated)
inactive: DMS-273 2.65 µM | DLD-1 6.18 µM | KM-20L2 3.64 µM | DMS-114 3.49 µM | XF498 5.36 µM | M19-MEL 3.3 µM | LXFL 529 4.9 µM | HOP-18 13.7 µM

CC(C)C(N)=O [ISOBUTYRAMIDE]
inactive: DMS-273 > 5000 µM | DLD-1 > 5000 µM | DMS-114 > 5000 µM | M19-MEL > 5000 µM | LXFL 529 > 5000 µM | HOP-18 > 5000 µM

CC(=O)c1c(O)ccc2c1CC(CC=O)O2 (configuration not stated)
inactive: DLD-1 32.7 µM | KM-20L2 > 100 µM | DMS-114 20.1 µM | RXF 631 65 µM | XF498 > 100 µM | M19-MEL 40.1 µM | LXFL 529 42.9 µM

CN(C)CCNC(=O)c1cccc2[nH]c(-c3ccccc3)nc12
inactive: DMS-273 14.5 µM | DLD-1 16.3 µM | DMS-114 17.3 µM | RXF 631 24.4 µM | M19-MEL 19.4 µM | HOP-18 11.9 µM

Cc1ccc2nc(N)[nH]c(=O)c2c1Sc1ccncc1
inactive: DMS-273 37.2 µM | DLD-1 > 100 µM | KM-20L2 10 µM | DMS-114 12.6 µM | XF498 22.8 µM | M19-MEL > 76 µM | LXFL 529 > 59.7 µM | HOP-18 > 100 µM

CC1(c2ccccc2)CC(c2ccccc2)=NO1 (configuration not stated)
inactive: DMS-273 > 100 µM | DLD-1 > 100 µM | DMS-114 > 100 µM | M19-MEL > 100 µM | LXFL 529 > 100 µM | HOP-18 > 100 µM

COC(=O)CC(CC(=O)C(=O)OC)C(=O)OC (configuration not stated)
inactive: DLD-1 > 100 µM | KM-20L2 > 100 µM | LXFL 529 > 100 µM

C/C(=N\NC(=O)c1ccccc1O)c1c(O)cc(C)oc1=O
inactive: DLD-1 49.8 µM | KM-20L2 > 100 µM | DMS-114 90.6 µM | M19-MEL 83.4 µM | LXFL 529 85.5 µM | HOP-18 27.2 µM

N#C/C(=C\c1ccc(O)c(O)c1)C(N)=S [TYRPHOSTIN 47]
inactive: DMS-273 > 79.1 µM | DLD-1 64.6 µM | KM-20L2 > 70.5 µM | DMS-114 18.2 µM | XF498 > 100 µM | M19-MEL > 100 µM | LXFL 529 72.8 µM | HOP-18 > 100 µM

C[N+]1(C)C/C(=C\C=C\c2ccccc2)C(=O)/C(=C/C=C/c2ccccc2)C1
inactive: DMS-273 1.62 µM | DLD-1 16.1 µM | KM-20L2 14.7 µM | DMS-114 2.72 µM | XF498 8.49 µM | M19-MEL 7.06 µM | LXFL 529 2.98 µM | HOP-18 > 42.2 µM

c1ccc(CCCC2Sc3cccc4cccc(c34)S2)cc1
inactive: DMS-273 > 100 µM | DLD-1 > 100 µM | KM-20L2 54.7 µM | DMS-114 > 100 µM | XF498 > 100 µM | M19-MEL 79.1 µM | LXFL 529 > 100 µM

c1ccc(-c2sc(-c3ccccc3)c3c2C(c2ccccc2)c2c(-c4ccccc4)sc(-c4ccccc4)c2C3c2ccccc2)cc1 (configuration not stated)
inactive: DMS-273 > 100 µM | DLD-1 > 100 µM | KM-20L2 > 100 µM | DMS-114 > 100 µM | M19-MEL > 100 µM | LXFL 529 > 100 µM

Nc1ccc2ncc(Nc3ccc(Cl)c(Cl)c3)nc2c1
inactive: DMS-273 23.2 µM | DLD-1 29.6 µM | KM-20L2 31.8 µM | DMS-114 13 µM | XF498 32.2 µM | M19-MEL 21.7 µM | LXFL 529 29.6 µM

CC1OC(n2cc(I)c(=O)[nH]c2=O)C=CC1=O (configuration not stated)
inactive: DMS-273 17.2 µM | DLD-1 13.2 µM | KM-20L2 17 µM | DMS-114 17 µM | XF498 19.2 µM | M19-MEL 16.4 µM | LXFL 529 10.8 µM | HOP-18 16.7 µM

From ChEMBL document CHEMBL1201862, “PubChem BioAssay data set” (2004)
